The nature of test [1]: growth suppression of PTEN-null colon cells, dose response, cell-based, HCT116 PTEN knockout (AID 1047).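 Further: HCT116 colon tumor cells with PTEN knocked out; cells exposed to compound for 60 hours before readout; potency for loss of cell viability measured by luminescence.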 Type of test: functional.
A short description of test [2]: growth suppression of beta-catenin-knockout colon cells, dose response, cell-based, HCT116, human colon tumor (AID 1045).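 Further: HCT116 colon tumor cells with beta catenin knocked out; cells exposed to compound for 60 hours.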 Type of test: functional.
Test [3] is described as follows: HEp-2 cell cytotoxicity, dose response, cytotoxicity control for RSV inhibitor project, HTS (AID 2410). Type of test: functional. The settings on record: human respiratory syncytial virus.
For test [4], the target named is T1, Cytochrome P450 1A2 (Homo sapiens, UniProt P05177).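 Further: PubChem cytochrome P450 panel assay, CYP1A2 panel member.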
T1 sequence (P05177 whole entry): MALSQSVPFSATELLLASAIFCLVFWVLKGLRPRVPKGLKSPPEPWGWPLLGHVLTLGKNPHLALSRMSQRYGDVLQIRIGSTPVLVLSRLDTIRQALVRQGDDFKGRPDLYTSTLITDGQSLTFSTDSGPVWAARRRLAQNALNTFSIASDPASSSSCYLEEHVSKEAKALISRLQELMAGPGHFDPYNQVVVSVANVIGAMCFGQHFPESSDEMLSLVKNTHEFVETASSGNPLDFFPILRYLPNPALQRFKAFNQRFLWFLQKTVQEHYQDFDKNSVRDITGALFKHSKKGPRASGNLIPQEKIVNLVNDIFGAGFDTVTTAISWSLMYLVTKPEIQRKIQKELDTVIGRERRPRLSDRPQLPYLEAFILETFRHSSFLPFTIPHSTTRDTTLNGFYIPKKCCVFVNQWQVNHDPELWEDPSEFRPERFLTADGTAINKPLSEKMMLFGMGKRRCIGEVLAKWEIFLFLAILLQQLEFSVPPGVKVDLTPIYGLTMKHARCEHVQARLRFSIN

Test [5] has as its target T2, Corticotropin-releasing factor receptor 2/Corticotropin-releasing factor-binding protein (Homo sapiens, UniProt P24387+Q13324).
T2 sequence (Q13324 whole entry): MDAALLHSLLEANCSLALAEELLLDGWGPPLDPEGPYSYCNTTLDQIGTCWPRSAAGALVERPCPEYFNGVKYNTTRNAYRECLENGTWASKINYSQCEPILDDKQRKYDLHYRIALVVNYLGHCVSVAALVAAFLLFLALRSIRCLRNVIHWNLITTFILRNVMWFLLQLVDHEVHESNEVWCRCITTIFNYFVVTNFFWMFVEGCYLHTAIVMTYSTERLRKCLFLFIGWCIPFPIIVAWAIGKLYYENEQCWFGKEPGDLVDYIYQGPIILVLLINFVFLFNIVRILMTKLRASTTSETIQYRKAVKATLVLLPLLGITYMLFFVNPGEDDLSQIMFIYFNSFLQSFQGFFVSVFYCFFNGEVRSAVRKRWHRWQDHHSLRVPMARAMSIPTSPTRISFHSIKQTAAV
T2 sequence (P24387 whole entry): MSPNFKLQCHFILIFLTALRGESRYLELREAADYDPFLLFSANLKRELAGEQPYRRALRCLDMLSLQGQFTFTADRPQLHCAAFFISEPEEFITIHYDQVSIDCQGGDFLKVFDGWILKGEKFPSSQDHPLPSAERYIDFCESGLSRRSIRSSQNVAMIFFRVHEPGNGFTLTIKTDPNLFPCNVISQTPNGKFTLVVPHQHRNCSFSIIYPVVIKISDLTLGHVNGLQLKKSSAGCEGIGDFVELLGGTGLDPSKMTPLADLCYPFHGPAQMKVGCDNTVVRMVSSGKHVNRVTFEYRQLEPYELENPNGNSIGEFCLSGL
The test is described as follows: activators of CRF receptor 2 with binding protein – uHTS hits, confirmation (AID 602473). Type of test: functional. To be noted: read-out: EC50_Mean.

Test [6] can be described thus: cytotoxicity toward NIH3T3 fibroblasts, dose response, counter-screen, cell-based, ATP luminescence, mouse fibroblasts (AID 2010).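 Further: cells exposed to compound for about 90 hours before reading.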 Type of test: functional.
Test [7] in a line: inhibitors of intracellular T. cruzi replication, confirmation, NIH3T3 host cells, beta-gal luminescence (AID 2044).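 Further: intracellular parasites grown in NIH/3T3 mouse fibroblasts as host cells; luminescent beta-galactosidase reporter signal from transgenic T. cruzi replicating inside host cells; inhibitors lower the luminescence signal.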 In kind it is functional, cell-based.
The target in test [8] is Cytochrome P450 3A4 (Homo sapiens, UniProt P08684).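 Further: CYP3A4 tested as one member of a cytochrome P450 panel screen.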
Cytochrome P450 3A4, sequence (P08684 whole entry): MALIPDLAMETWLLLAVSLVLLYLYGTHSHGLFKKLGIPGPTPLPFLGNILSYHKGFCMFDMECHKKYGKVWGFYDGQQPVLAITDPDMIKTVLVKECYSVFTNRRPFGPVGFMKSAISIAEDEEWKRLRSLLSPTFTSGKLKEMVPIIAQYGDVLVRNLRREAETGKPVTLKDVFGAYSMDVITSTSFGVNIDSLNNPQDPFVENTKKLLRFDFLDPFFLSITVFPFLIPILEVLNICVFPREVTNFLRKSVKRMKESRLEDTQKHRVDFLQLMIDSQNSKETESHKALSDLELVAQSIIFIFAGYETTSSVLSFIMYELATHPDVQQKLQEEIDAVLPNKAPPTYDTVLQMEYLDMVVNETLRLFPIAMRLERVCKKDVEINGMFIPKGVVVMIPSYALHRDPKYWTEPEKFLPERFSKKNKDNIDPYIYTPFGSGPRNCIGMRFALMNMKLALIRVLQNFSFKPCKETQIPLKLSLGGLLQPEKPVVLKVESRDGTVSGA
Test [9] concerns Streptococcus. The test is described as follows: Group A Streptococcus viability loss, dose response, counter-screen for streptokinase expression inhibitor project, luminescence, BacTiterGlo (AID 1915).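 Further: potency for reduction of bacterial viability or growth.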 In kind it is functional, organism-based.
In test [10] the test system is Streptococcus sp. 'group A'. The experiment in a line: growth inhibition of control SK(-) GAS strain, dose response, counter-screen for streptokinase expression inhibitor project, luminescence, kanamycin, BacTiterGlo, confirmation (AID 1900). In kind it is functional, organism-based. (In general: A counterscreen serves to expose hits that act by an unwanted route or on another target.)

In test [11] the test system is H4. The test is described as follows: Luminescence Cell-Based Dose Response HTS to Identify Activators of 5'UTR Stem-Loop Driven Prion Protein mRNA Translation in H4 Neuroglioblastoma Cells. [Related pubchem assays: 1829 (Project Summary), 1814 (Primary HTS)]. Type of test: functional. To be noted: Homo sapiens.
The nature of test [12]: Luminescence Cell-Based Dose Response HTS to Identify Activators of Luciferase Translation or Activity in H4 […] Cells. [Related pubchem assays: 1829 (Project Summary), 1814 (Primary HTS)]. Type of test: functional.

Structures are written as SMILES. Active and inactive are the calls of the source. For most assays here, no stated cut-off is given here; in the data, actives have a measured EC50 and inactives only a lower limit.

Consider `COC(=O)c1sccc1NC(=O)/C=C/c1ccc(Cl)cc1Cl`, for which the EC50 in [1] is 13.8 µM (active); in test [2], 51.4 µM (active). By CC50 is commonly meant the concentration that lowers cell viability or growth by half. Turning to `CCCn1c(C(C)Nc2nc(-c3ccc(C)cc3)cs2)nc2ccccc21` (centres undefined), the CC50 in test [3] was 15.2 µM (active). Turning to `Cc1nc2nc(-c3ccccc3)nn2c(C)c1C`, in [3], the cytotoxic concentration (CC50) is 39.4 µM (active). As usually defined, the AC50 is the concentration at which the activity in the assay is half-maximal. Turning to `C[C@@H](C(=O)Nc1ccc2ccccc2c1)[C@H]1C[C@]1(C)[C@H](NS(=O)(=O)c1ccc(-c2ccccc2)cc1)c1ccccc1`, the AC50 in [4] was 15.8 µM (inconclusive). Consider `O=c1[nH]c(=O)n(-c2ccccc2)c2c1C(C(F)(F)F)(C(F)(F)F)NC(CCC1CCCCC1)=N2`, for which the EC50 in test [5] is 7.07 µM (active).

Regarding `O=C(O)c1[nH]c2c([N+](=O)[O-])cc([N+](=O)[O-])cc2c1C(=O)O`, the AC50 in test [4] was 0.126 µM (inconclusive). With `Cc1c(NC(=O)c2cc3c(s2)-c2ccccc2OC3)cccc1[N+](=O)[O-]`, the cytotoxic concentration (CC50) in [3] was 6.43 µM (active).

In the case of `N#CC1=C(N)Oc2c(c(=O)sc3ccccc23)C1c1cccnc1` (centres undefined), the EC50 is 8.85 µM (active) in test [6] and 0.536 µM (active) in [7]. As to `NS(=O)(=O)c1ccc(/N=N\c2nc3c(S)ncnc3[nH]2)cc1`, the AC50 in [4] is 6.31 µM (inconclusive).

As for `COc1ccc2c(c1)OC[C@H]1[C@H]2N2C(=O)CN(Cc3ccc(F)cc3)C(=O)[C@@]2(C)[C@H]1c1ccccc1`, in [3], the CC50 is 16.4 µM (active).

For `[O-][n+]1c(CN2CCCCC2)nc2cccc3c2c1-c1ccccc1-3`, the AC50 in test [8] is 3.16 µM (inconclusive). With `O=C(c1ccc(COc2ccccc2Cl)o1)N1CCN(c2ccccc2)CC1`, the CC50 in test [3] is 13.4 µM (active). `Cc1cc(O)n2nc(Nc3cccc(Cl)c3)nc2n1`: in [5], the EC50 is > 53 µM (inactive). For `COc1ccc2[nH]cc(C(=O)CN3CCCCC3)c2c1`, the EC50 in test [5] is > 53 µM (inactive). With `CCOc1ccccc1C(=O)Nc1cccc2cccnc12`, the 50% cytotoxic concentration (CC50) in [3] was 30.4 µM (active). For the molecule `S=C(NC1CCCCC1)N1CCn2cccc2C1c1cccnc1` (centres undefined), the values for the EC50 in test [6] and in test [7] were > 60 µM (not active) and 0.379 µM (active), respectively.

On to `O=[N+]([O-])c1cc([N+](=O)[O-])c2[nH]nc(-c3ccccc3)c2c1`, for which the EC50 in test [6] was > 60 µM (not active); in test [7], 1.47 µM (active). `COc1ccccc1OCCCn1cc(C=O)c2ccccc21`: the CC50 in [3] was 8.95 µM (active).

As for `COc1cccc(-c2nnc(Nc3nc4c(F)cccc4s3)o2)c1`, the values for the EC50 in [9] and in test [10] were 26.2 µM (active) and 0.767 µM (active), respectively.

Take `N=c1c2c(-c3ccccc3)c(-c3ccccc3)n(Cc3ccco3)c2ncn1CCN1CCOCC1`: the EC50 in [6] was > 60 µM (not active); in test [7], 1.53 µM (active); in test [1], 7.92 µM (active); in test [2], 8.19 µM (active). Turning to `COc1ccccc1NS(=O)(=O)c1cc(NC(=O)c2cccs2)ccc1N1CCCCC1`, the EC50 was > 30 µM (not active) in test [6] and 1.23 µM (active) in test [7].

Turning to `CSCCC(NC(=O)c1ccco1)C(=O)OCc1cc([N+](=O)[O-])cc2c1OCOC2` (centres undefined), the EC50 in test [5] was 6.29 µM (active).

For the molecule `COc1cc(/C=C(\C#N)c2nc3ccccc3s2)ccc1OCC(=O)Nc1ccccc1`, the EC50 in test [1] is 25.2 µM (active); in test [2], 560 µM (active). On to `CN(C)CCCNc1c2c(nc3cc(-c4cccc(F)c4)nn13)CCC2`, for which the EC50 was > 60 µM (not active) in test [6] and 0.181 µM (active) in test [7]. With `O=C(Nc1ccc(Cl)cc1)N1CCCN(Cc2ccc(F)cc2)C1`, the EC50 in test [1] is 17.2 µM (active); in test [2], 16.4 µM (active). With `NNC(=O)CNc1cccc(Br)c1`, the concentration at half-maximal activity (AC50) in test [8] is 2.51 µM (inconclusive). Turning to `COc1ccc(Cl)cc1NC(=O)CSc1nnc(Cc2cccn2C)n1-c1ccc(F)cc1`, the EC50 in [1] is 80.8 µM (active); in [2], 72.9 µM (active). For the molecule `CN1CCN(c2ccc(-c3ccnn3C(=O)Nc3cccc(C(F)(F)F)c3)cc2)CC1`, the EC50 was 5.98 µM (active) in test [11] and 3.08 µM (active) in test [12]. Take `Nc1nc2nc(-c3ccccc3)cc(C(F)(F)F)c2s1`: the CC50 in test [3] was 35.5 µM (active).

For `CCn1cc(C(=O)NCc2ccc3c(c2)OCO3)c(=O)c2cc(F)c(N3CCN(C)CC3)cc21`, the values for the EC50 in test [6] and in [7] were > 60 µM (not active) and 1.16 µM (active), respectively. Take `CCc1cccc2cc3c(N)c(C(=O)Nc4ccc(S(=O)(=O)N5CCCC5)cc4)sc3nc12`: in test [3], the CC50 was 38 µM (active). Turning to `CN1/C(=C\C=C(/C#N)C(=O)Nc2ccccc2F)C(C)(C)c2ccccc21`, the EC50 in test [5] was 5.05 µM (active). `O=C(NCCNc1ccc([N+](=O)[O-])cc1)c1ccccc1Br`: the AC50 in test [8] was 28.2 µM (inconclusive). Take `O=C(Nc1ccc(N2CCN(C(=O)c3ccc(Cl)cc3)CC2)cc1)c1ccc(Br)o1`: the EC50 was > 60 µM (not active) in test [6] and 4.09 µM (active) in test [7]. For `C[C@@H](C1=C(CCN(C)C)Cc2ccccc21)c1ccccn1`, the AC50 in test [4] was 20 µM (inconclusive). In the case of `Oc1nc(-c2ccccc2)n(-c2ccc(Cl)cc2)n1`, the EC50 in [5] was > 53 µM (inactive).

For `Cc1cccc(N2CCN(c3nc4ccc(Cl)cc4n4cnnc34)CC2)c1C`, the EC50 was 19.1 µM (active) in [1] and 20 µM (active) in [2].

As to `CCSc1nnc2nc3c(c(O)n12)C1(CCCC1)Cc1ccccc1-3`, the EC50 in test [9] and in [10] was 8.43 µM (active) each time.

For the molecule `FC(F)(F)c1ccc2c(c1)nc(S)n2C1CC1`, the CC50 in [3] was 34.1 µM (active). As to `Cc1cccc(Nc2nc(N3CCOCC3)nc(N3CCOCC3)n2)c1`, the EC50 was 5.8 µM (active) in test [6] and 0.465 µM (active) in test [7]. `O=C(Nc1ccc2nn(-c3ccccc3)nc2c1)c1cccnc1`: the CC50 in test [3] was > 50 µM (active). On to `CC(C)(C)C(=O)Cn1c(=N)n(Cc2ccccc2Cl)c2ccccc21`, for which the EC50 in [6] is > 60 µM (not active); in test [7] it was 2.39 µM (active). `COc1ccc(CCNC(=O)COc2ccc(S(=O)(=O)NC3CCCCC3)cc2Cl)cc1`: the half-maximal activity concentration (AC50) in test [4] was 25.1 µM (inconclusive). For the molecule `Cc1ncc(C/N=C\c2ccc(Cl)cc2)c(N)n1`, the AC50 in [4] is 5.01 µM (inconclusive).

Regarding `Cc1ccc(NC(=O)N(Cc2ccco2)Cc2cc3cc(C)cc(C)c3nc2Cl)cc1`, the EC50 in test [6] was > 30 µM (not active); in test [7], 2.78 µM (active). With `O=C(CCCN1C(=O)/C(=C/c2ccccc2Cl)SC1=S)N1CCCC1`, in [3], the CC50 was 15.5 µM (active). As to `CCOc1ccc(CN2CCN(Cc3nc(C(C)C)cs3)CC2CCO)cc1` (centres undefined), the EC50 in test [6] is > 60 µM (not active); in [7], 0.845 µM (active). Turning to `COc1ccc(/C=N\NC(=O)O)cc1`, the concentration at half-maximal activity (AC50) in test [4] was 0.501 µM (inconclusive).

Take `COc1ccc(-c2oc(/N=C/N3CCCC3)c(C#N)c2-c2ccc(OC)cc2)cc1`: the results for the EC50 in test [6] and in test [7] were > 60 µM (not active) and 1.75 µM (active), respectively. Regarding `Cc1c(/C=N\NC(=O)C2COc3ccc(C(C)(C)C)cc3O2)c2ccccc2n1C` (centres undefined), the EC50 in [6] was > 60 µM (not active); in test [7] it was 2.25 µM (active).
